According to US11427548B2 (Arvinas Operations, Inc., priority 2015, dated 2022):
Read-outs that look alike come from different tables or passages of the source.

Key:
Androgen Receptor = target: T1, Androgen Receptor (Homo sapiens, UniProt P10275); assay: Androgen Receptor ELISA assay (PathScan AR ELISA) in VCaP cells: AR degradation, Dmax and DC50; type: cell-based
T1 construct: endogenous in cells; host or cells: VCaP cells
T1 sequence (P10275 1-920): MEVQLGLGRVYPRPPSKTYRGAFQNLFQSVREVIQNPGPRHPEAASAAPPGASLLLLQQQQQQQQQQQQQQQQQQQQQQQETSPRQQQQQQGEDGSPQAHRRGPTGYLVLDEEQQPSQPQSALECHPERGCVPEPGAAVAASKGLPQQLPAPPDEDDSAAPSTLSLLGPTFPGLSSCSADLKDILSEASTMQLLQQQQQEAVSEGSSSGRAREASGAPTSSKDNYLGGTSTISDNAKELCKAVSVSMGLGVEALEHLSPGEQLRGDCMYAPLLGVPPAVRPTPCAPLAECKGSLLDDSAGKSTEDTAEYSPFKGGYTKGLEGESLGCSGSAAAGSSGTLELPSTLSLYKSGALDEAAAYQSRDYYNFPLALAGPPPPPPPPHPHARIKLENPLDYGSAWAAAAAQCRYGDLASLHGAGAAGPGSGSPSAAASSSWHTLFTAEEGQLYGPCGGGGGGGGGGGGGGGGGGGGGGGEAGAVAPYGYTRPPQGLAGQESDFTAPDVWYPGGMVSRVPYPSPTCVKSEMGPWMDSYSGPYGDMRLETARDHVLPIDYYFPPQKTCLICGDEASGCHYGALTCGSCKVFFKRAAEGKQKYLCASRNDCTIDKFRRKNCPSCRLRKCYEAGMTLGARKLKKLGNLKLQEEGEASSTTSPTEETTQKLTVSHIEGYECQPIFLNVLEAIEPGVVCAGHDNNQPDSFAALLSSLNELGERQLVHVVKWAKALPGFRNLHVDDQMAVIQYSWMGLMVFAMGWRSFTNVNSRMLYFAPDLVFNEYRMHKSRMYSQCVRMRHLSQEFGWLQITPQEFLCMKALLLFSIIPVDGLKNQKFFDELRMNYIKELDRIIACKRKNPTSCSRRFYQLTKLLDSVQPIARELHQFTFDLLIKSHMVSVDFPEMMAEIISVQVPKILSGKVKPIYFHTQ
Method in brief: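 VCaP cells in phenol red-free RPMI with 5% charcoal-stripped FBS were grown at least 3 days, then given compound as 7 half-log doses in 0.1% DMSO with 0.1 nM R1881 for 24 h. Lysates went into a sandwich AR ELISA with TMB read at 450 nm.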

VCaP cells = assay: VCaP cell proliferation assay (Cell Titer Glo), GI50; type: cell-based; details: Homo sapiens, VCaP cells, 0.1 nM R1881, read-out: GI50, Inhibition of VCaP Proliferation
Protocol: 2. VCaP Cell Proliferation Assay.
VCaP cells are plated 7,500/well 200 μL/well in VCaP assay medium [Phenol red free RPMI (Gibco Cat #11835-030); 5% Charcoal Stripped (Dextran treated) FBS (Omega Scientific, Cat #FB-04); Pen/Strep Life Technologies (Gibco Cat #: 10378-016); 0.1 nM R1881 (Sigma, Cat #R0908) is added upon the start of the assay, not during initial plating of the cells).
The assay was performed as follows: the cells are grown for a minimum of 3 days to deplete androgens; dosing of PROTACs and R1881 is performed as for AR ELISA; the baseline reading of Cell Titer Glo can be performed on day of dosing.
VCaP cells with 0.1 nM R1881 will double once in 4 days. Gently draw off 110 μL of media so as not to disturb the adherent cells; add 110 μL of CTG; incubate with slow shaking for 20 minutes; and read luminescence on a plate reader.

[1] = VCaP, highest percentage of Androgen Receptor degradation observed, VCaP cells (Table 32); read-out: VCaP Dmax (%)
[2] = concentration that caused 50% Androgen Receptor degradation, VCaP cells (Table 32); read-out: VCaP DC50
[3] = read-out: VCaP DC50; VCaP cells; concentration that caused 50% Androgen Receptor degradation
[4] = VCaP cells; concentration that caused 50% Androgen Receptor degradation; read-out: VCaP DC50
[5] = VCaP, VCaP cells; highest percentage of Androgen Receptor degradation; read-out: VCaP Dmax (%)

SMILES | Dmax (Androgen Receptor; [1]) [%] | GI50 (VCaP cells; Table 37) [nM] | also measured
Cc1ncsc1-c1ccc([C@H](C)NC(=O)[C@@H]2C[C@@H](O)CN2C(=O)[C@@H](NC(=O)COCCCCCOc2ccc(C(=O)N[C@H]3C(C)(C)[C@H](Oc4ccc(C#N)c(Cl)c4)C3(C)C)cc2)C(C)(C)C)cc1 [Example 157, (2S,4R)-1-[(2S)-3,3-dimethyl-2-(2-{[5-(4-{[trans-3-(3-chloro-4-cyanophenoxy)-2,2,4,4-tetramethylcyclobutyl]carbamoyl}phen-oxy)pentyl]oxy}acetamido)butanoyl]-4-hydroxy-N-[(1S)-1-[4-(4-methyl-1,3-thiazol-5-yl)phenyl]ethyl]pyrrolidine-2-carboxamide] | > 71 | ≤ 50 | 
CC(C)(C)[C@H](NC(=O)COCCCCOc1ccc(C(=O)N[C@H]2C(C)(C)[C@H](Oc3ccc(C#N)c(Cl)c3)C2(C)C)cc1)C(=O)N1C[C@H](O)C[C@H]1C(=O)NCc1ccc(Cl)cc1 [Example 169, (2S,4R)-N-[(4-chlorophenyl)methyl]-1-[(2S)-3,3-dimethyl-2-{2-[4-(4-{[trans-3-(3-chloro-4-cyanophenoxy)-2,2,4,4-tetramethylcyclobutyl]carbamoyl}phenoxy)butoxy]acetamido}butanoyl]-4-hydroxypyrrolidine-2-carboxamide] | 51 to 70 | 51 to 250 | DC50 (Androgen Receptor; [2]): < 50 nM
Cc1ncsc1-c1ccc(CNC(=O)[C@@H]2C[C@@H](O)CN2C(=O)[C@@H](NC(=O)COC[C@@H](O)CCOc2ccc(-c3ccc(N4C(=S)N(c5ccc(C#N)c(C(F)(F)F)c5)C(=O)C4(C)C)cc3)cc2)C(C)(C)C)cc1 [Example 131, (2S,4R)-1-[(2S)-2-{2-[(2S)-4-[4-(4-{3-[4-cyano-3-(trifluoromethyl)phenyl]-5,5-dimethyl-4-oxo-2-sulfanylideneimidazolidin-1-yl}phenyl)phenoxy]-2-hydroxybutoxy]acetamido}-3,3-dimethylbutanoyl]-4-hydroxy-N-{[4-(4-methyl-1,3-thiazol-5-yl)phenyl]methyl}pyrrolidine-2-carboxamide] |  | 51 to 250 | Dmax (Androgen Receptor; VCaP, read-out: VCaP Dmax (%)): > 71%
Cc1ncsc1-c1ccc(CNC(=O)[C@@H]2C[C@@H](O)CN2C(=O)[C@@H](NC(=O)COCCCCCNc2ccc(C(=O)N[C@H]3C(C)(C)[C@H](Oc4ccc(C#N)c(Cl)c4)C3(C)C)cc2)C(C)(C)C)cc1 [Example 172, (2S,4R)-1-[(2S)-3,3-dimethyl-2-[2-({5-[(4-{[trans-3-(3-chloro-4-cyanophenoxy)-2,2,4,4-tetramethylcyclobutyl]carbamoyl}phenyl)amino]pentyl}oxy)acetamido]butanoyl]-4-hydroxy-N-{[4-(4-methyl-1,3-thiazol-5-yl)phenyl]methyl}pyrrolidine-2-carboxamide] | > 71 | ≤ 50 | 
Cc1ncsc1-c1ccc([C@H](C)NC(=O)[C@@H]2C[C@@H](O)CN2C(=O)[C@@H](NC(=O)COCC2CC3(C2)CC(COc2ccc(N4C(=S)N(c5ccc(C#N)c(C(F)(F)F)c5)C(=O)C4(C)C)cc2)C3)C(C)(C)C)cc1 (stereo partly drawn) [Example 202, (2S,4R)-1-[(2S)-2-[2-({6-[(4-{3-[4-cyano-3-(trifluoromethyl)phenyl]-5,5-dimethyl-4-oxo-2-sulfanylideneimidazolidin-1-yl}phenoxy)methyl]spiro[3.3]heptan-2-yl}methoxy)acetamido]-3,3-dimethylbutanoyl]-4-hydroxy-N-[(1S)-1-[4-(4-methyl-1,3-thiazol-5-yl)phenyl]ethyl] pyrrolidine-2-carboxamide] |  | 51 to 250 | Dmax (Androgen Receptor; VCaP, read-out: VCaP Dmax (%)): > 71%; DC50 (Androgen Receptor; [3]): < 50 nM
Cc1ncsc1-c1ccc(CNC(=O)[C@@H]2C[C@@H](O)CN2C(=O)[C@@H](NC(=O)COCC2CC3(C2)CC(COc2ccc(N4C(=S)N(c5ccc(C#N)c(C(F)(F)F)c5)C(=O)C4(C)C)cc2)C3)C(C)(C)C)cc1 (stereo partly drawn) [Example 201, (2S,4R)-1-[(2S)-2-[2-({6-[(4-{3-[4-cyano-3-(trifluoromethyl)phenyl]-5,5-dimethyl-4-oxo-2-sulfanylideneimidazolidin-1-yl}phenoxy)methyl]spiro[3.3]heptan-2-yl}methoxy)acetamido]-3,3-dimethylbutanoyl]-4-hydroxy-N-{[4-(4-methyl-1,3-thiazol-5-yl)phenyl]methyl} pyrrolidine-2-carboxamide] |  | 51 to 250 | Dmax (Androgen Receptor; VCaP, read-out: VCaP Dmax (%)): > 71%; DC50 (Androgen Receptor; [3]): < 50 nM
Cc1ncsc1-c1ccc(CNC(=O)[C@@H]2C[C@@H](O)CN2C(=O)[C@@H](NC(=O)COCCCCOc2ccc(-c3ccc(N4C(=S)N(c5cnc(C#N)c(C(F)(F)F)c5)C(=O)C4(C)C)c(F)c3)cc2)C(C)(C)C)cc1 [Example 197, (2S,4R)-1-[(2S)-2-(2-{4-[4-(4-{3-[6-cyano-5-(trifluoromethyl)pyridin-3-yl]-5,5-dimethyl-4-oxo-2-sulfanylideneimidazolidin-1-yl}-3-fluorophenyl)phenoxy]butoxy}acetamido)-3,3-dimethylbutanoyl]-4-hydroxy-N-{[4-(4-methyl-1,3-thiazol-5-yl)phenyl]methyl}pyrrolidine-2-carboxamide] |  | 51 to 250 | DC50 (Androgen Receptor; [4]): < 50 nM; Dmax (Androgen Receptor; [5]): > 71%
CC(C)(C)[C@H](NC(=O)COCCCCOc1ccc(C(=O)N[C@H]2C(C)(C)[C@H](Oc3ccc(C#N)c(Cl)c3)C2(C)C)cc1)C(=O)N1C[C@H](O)C[C@H]1C(=O)NCc1ccc(C#N)cc1 [Example 170, (2S,4R)-N-[(4-cyanophenyl)methyl]-1-[(2S)-3,3-dimethyl-2-{2-[4-(4-{[trans-3-(3-chloro-4-cyanophenoxy)-2,2,4,4-tetramethylcyclobutyl]carbamoyl}phenoxy)butoxy]acetamido}butanoyl]-4-hydroxypyrrolidine-2-carboxamide] | > 71 | ≤ 50 | DC50 (Androgen Receptor; [2]): < 50 nM
Cc1ncsc1-c1ccc([C@H](C)NC(=O)[C@@H]2C[C@@H](O)CN2C(=O)[C@@H](NC(=O)COCCCCOc2ccc(-c3ccc(N4C(=S)N(c5cnc(C#N)c(C(F)(F)F)c5)C(=O)C4(C)C)cc3)cc2)C(C)(C)C)cc1 [Example 194, (2S,4R)-1-[(2S)-2-(2-{4-[4-(4-{3-[6-cyano-5-(trifluoromethyl)pyridin-3-yl]-5,5-dimethyl-4-oxo-2-sulfanylideneimidazolidin-1-yl}phenyl)phenoxy]butoxy}acetamido)-3,3-dimethylbutanoyl]-4-hydroxy-N-[(1S)-1-[4-(4-methyl-1,3-thiazol-5-yl)phenyl]ethyl]pyrrolidine-2-carboxamide] |  | 51 to 250 | DC50 (Androgen Receptor; [4]): < 50 nM; Dmax (Androgen Receptor; [5]): > 71%
Cc1ncsc1-c1ccc(CNC(=O)[C@@H]2C[C@@H](O)CN2C(=O)[C@@H](NC(=O)COCCNc2ccc(-c3ccc(C(=O)NC4C(C)(C)C(Oc5ccc(C#N)c(Cl)c5)C4(C)C)cc3)cc2)C(C)(C)C)cc1 (stereo partly drawn) [Example 204, (2S,4R)-1-[(2S)-2-[2-(2-{[4-(4-{[3-(3-chloro-4-cyanophenoxy)-2,2,4,4-tetramethylcyclobutyl]carbamoyl}phenyl)phenyl]amino}ethoxy)acetamido]-3,3-dimethylbutanoyl]-4-hydroxy-N-{[4-(4-methyl-1,3-thiazol-5-yl)phenyl]methyl}pyrrolidine-2-carboxamide] |  | ≤ 50 | DC50 (Androgen Receptor; [4]): < 50 nM; Dmax (Androgen Receptor; [5]): > 71%
CC(C)(C)OC(=O)COCCCCCNc1ccc(C(=O)N[C@H]2C(C)(C)[C@H](Oc3ccc(C#N)c(Cl)c3)C2(C)C)cc1 [ABM-37] |  |  | GI50 (VCaP cells; Table 38 (ABM)): ≤ 50 nM
